Assay results taken from patent US20230063703A1, “DRUG AND FOOD FOR TREATING AND/OR PREVENTING ENTERITIS AND/OR HEPATITIS” (priority 2020, published 2023).
Where two headings read alike, the source gives them in different places.

What was measured:
[1] = test system: DSS-induced colitis model mice; assay: Enteritis-inhibiting effect of single species D-amino acids in DSS-induced colitis model mice; format: in vivo, mice (B6CL57); conditions: single D-amino acid in drinking water 3 weeks, then 2% DSS; 8th day; compared with water containing all five D-amino acids
Procedure: The DAI scores were assigned for the following: diarrhea symptom (normal: 0, soft feces: 1, mild diarrhea: 2, moderate diarrhea: 3, severe diarrhea: 4); bloody stool symptom (normal: 0, mild bloody stool: 1, moderate bloody stool: 2, severe bloody stool: 3, severe bloody stool with anal bleeding: 4); and body weight reduction (None: 0, 1% to 5%: 1, 5% to 10%: 2, 10% to 20%: 3, ÷20%: 4), and the total values were calculated (minimum 0 points, maximum 12 points), for each mouse.

[2] = Blood D-serine concentration in mice given drinking water containing D-serine; format: in vivo; conditions: free access to drinking water containing 1% D-serine
Text: The blood concentration of administered D-serine is preferably 5 nmol/mL or greater, more preferably 10 nmol/mL or greater and even more preferably 50 nmol/mL or greater. The D-serine blood concentration is also preferably 1 μmol/mL or lower, more preferably 0.5 μmol/mL or lower and even more preferably 0.1 μmol/mL or lower.

[3] = test system: kidneys; conditions: cited from earlier work; for toxicity on the kidneys: rat, in vivo, ip; for amino acid excretion: after 2 hours

Structure (SMILES): C[C@@H](N)C(=O)O [D-Ala, D-alanine]
- DAI score [1]: equivalent to drinking water containing all five D-amino acids
- body weight reduction suppressing effect [1]: equivalent to drinking water containing all five D-amino acids

Structure (SMILES): N[C@H](CC(=O)O)C(=O)O [D-Asp, D-aspartic acid]
- DAI score [1]: equivalent to drinking water containing all five D-amino acids
- body weight reduction suppressing effect [1]: equivalent to drinking water containing all five D-amino acids

Structure (SMILES): N[C@H](CCC(=O)O)C(=O)O [D-Glu, D-glutamic acid]
- DAI score [1]: significantly inhibited enteritis more than the drinking water containing all five D-amino acids
- body weight reduction suppressing effect [1]: significantly inhibited enteritis more than the drinking water containing all five D-amino acids

Structure (SMILES): N[C@H](CO)C(=O)O [D-Ser, D-serine]
- DAI score [1]: equivalent to drinking water containing all five D-amino acids
- body weight reduction suppressing effect [1]: equivalent to drinking water containing all five D-amino acids
- blood D-serine concentration [2]: 100 nmol/mL
- toxicity on the kidneys ([3]; 26 mg/kg): no toxicity
- toxicity on the kidneys ([3]; 267 mg/kg): toxicity of D-serine on the kidneys was exhibited
- toxicity on the kidneys ([3]; 800 mg/kg): toxicity of D-serine on the kidneys was exhibited
- amino acid excretion ([3]; rats, intraperitoneal, 26 mg/kg): no effect
- amino acid excretion ([3]; rats, intraperitoneal, 80 mg/kg): no effect
- amino acid excretion ([3]; rats, intraperitoneal, 267 mg/kg): significantly increased
- amino acid excretion ([3]; rats, intraperitoneal, 800 mg/kg): significantly increased
- nephrotoxicity ([3]; rats, intraperitoneal, doses such as 800 mg/kg, 400 mg/kg or 250 mg/kg): causes nephrotoxicity

Structure (SMILES): N[C@H](Cc1c[nH]c2ccccc12)C(=O)O [D-Trp, D-tryptophan]
- DAI score [1]: significantly inhibited enteritis more than the drinking water containing all five D-amino acids
- body weight reduction suppressing effect [1]: significantly inhibited enteritis more than the drinking water containing all five D-amino acids
